In patent US20260226073A1 (AURIGENE ONCOLOGY LIMITED, priority 2023, published 2026) one finds IC50 data, which are given here for 35 compounds.

For this experiment, the target named is T1, human recombinant CBL-b (human Biotin CBL-b recombinant protein a.a. 39-426) (Homo sapiens, UniProt Q13191).
T1 construct: human Biotin CBL-b recombinant protein a.a; 39-426; Biotin (biotinylated); made in house
T1 sequence (Q13191 39-426): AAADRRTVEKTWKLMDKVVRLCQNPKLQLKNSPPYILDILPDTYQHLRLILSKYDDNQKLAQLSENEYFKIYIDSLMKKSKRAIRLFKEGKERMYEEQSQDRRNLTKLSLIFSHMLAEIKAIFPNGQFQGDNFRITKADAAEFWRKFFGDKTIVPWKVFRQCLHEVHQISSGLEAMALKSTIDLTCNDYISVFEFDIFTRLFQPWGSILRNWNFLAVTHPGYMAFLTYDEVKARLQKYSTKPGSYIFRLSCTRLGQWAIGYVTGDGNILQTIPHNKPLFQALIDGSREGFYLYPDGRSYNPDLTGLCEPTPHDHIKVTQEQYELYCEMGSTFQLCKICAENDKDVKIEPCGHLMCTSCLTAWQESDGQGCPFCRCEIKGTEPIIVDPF
In words: Biochemical assay for CBL-b inhibition (ligand displacement TR-FRET). To be noted: 50 nM CBL-b, 0.3 μM Bodipy FL-Probe, read-out: IC50 (CBL-b inhibition, group). The experiment is classed as binding. How it is done: The inhibitory activity of the test compounds was assessed by Ligand displacement TR-FRET assay. The human recombinant CBL-b (human Biotin CBL-b recombinant protein a.a. 39-426; synthesised in-house) was diluted in enzyme assay buffer (20 mM HEPES, 150 mM NaCl, 0.01% Triton X, 0.01% BSA, 0.5 mM TCEP) in a 10 μl volume and plated in 384-well plates (Cat #781075, Greiner) to a final concentration of 50 nM. The enzyme/compound mixture was incubated at RT for 60 min. The Bodipy FL-Probe described in WO 2020/210508 (synthesized in-house) diluted in enzyme assay buffer was added to the plate and incubated for 60 min RT, the final probe concentration was 0.3 μM. After 60 min incubation, 10 μl of detection mix (Terbium Streptavidin, (Cat #PV3576, Invitrogen) diluted in 1× Lance buffer) was added and incubated for 60 min at room temperature. Time-resolved fluorescence (excitation, 320 nm; emission donor, 615 nm; emission acceptor, 665 nm) was monitored by using 2030 multilabel reader Victor5 (PerkinElmer). The IC50 (concentration for half maximal inhibition) and % maximum inhibition of the compounds were estimated by fitting the dose response data to a sigmoidal curve fitting equation using Graph pad Prism software V. 8.
(Time-resolved FRET reads energy transfer from a long-lived donor to a nearby acceptor.)
For orientation: IC50 means the concentration that gives 50% inhibition. As to `Cn1cnnc1CC1(c2ccc3c(c2)C(=O)N(c2cc(CN4CCC5(CCCO5)C4)cc(C(F)(F)F)n2)C3)COC1` (centres unmarked) [Compound 50, 2-(4-((1-Oxa-7-azaspiro[4.4]nonan-7-yl)methyl)-6-(trifluoromethyl)pyridin-2-yl)-6-(3-((4-methyl-4H-1,2,4-triazol-3-yl)methyl)oxetan-3-yl)isoindolin-1-one], the IC50 fell in the range of 0.3 to 5 µM.
For the compound `Cc1cc(CNCC(F)(F)F)cc(N2Cc3ccc(C4(Cc5nncn5C)COC4)cc3C2=O)c1` [Compound 22, 6-(3-((4-Methyl-4H-1,2,4-triazol-3-yl)methyl)oxetan-3-yl)-2-(3-methyl-5-(((2,2,2-trifluoroethyl)amino)methyl)phenyl)isoindolin-1-one], the IC50 lay in the range of 0.3 to 5 µM.
Consider `CN(CCC(F)(F)F)Cc1cc(Cl)nc(N2Cc3ccc(C4(Cc5nncn5C)COC4)cc3C2=O)c1` [Compound 340, 2-(6-Chloro-4-((methyl(3,3,3-trifluoropropyl)amino)methyl)-pyridin-2-yl)-6-(3-((4-methyl-4H-1,2,4-triazol-3-yl)methyl)oxetan-3-yl)isoindolin-1-one], for which the 50% inhibitory concentration (IC50) was 0.08 to 0.3 µM.
With `CC(C)NCC(O)c1cc(N2Cc3ccc(C4(Cc5nncn5C)COC4)cc3C2=O)cc(C(F)(F)F)c1` (centres unmarked) [Compound 100, 2-(3-(1-Hydroxy-2-(isopropylamino)ethyl)-5-(trifluoromethyl)-phenyl)-6-(3-((4-methyl-4H-1,2,4-triazol-3-yl)methyl)oxetan-3-yl)isoindolin-1-one], the 50% inhibitory concentration (IC50) lay in the range of 0.3 to 5 µM.
The same measure for `Cc1cc(CNC(C2CC2)C(F)(F)F)cc(N2Cc3ccc(-c4ccc(F)cc4-c4nncn4C)cc3C2=O)n1` (centres unmarked) [Compound 324]: 0.3 to 5 µM.
Take `CCN1CCC[C@@H]1CNCc1cc(C)nc(N2Cc3ccc(-c4ccc(F)cc4-c4nncn4C)cc3C2=O)c1` [Compound 317]: the IC50 was 0.3 to 5 µM.
Consider `C[C@@H](NC[C@H]1CCCO1)c1cc(Cl)nc(N2Cc3ccc(C4(Cc5nncn5C)COC4)cc3C2=O)c1` (single isomer, unassigned) [Compound 220], for which the IC50 is 0.08 to 0.3 µM.
Consider `C[C@@H](NCc1cscn1)c1cc(Cl)nc(N2Cc3ccc(C4(Cc5nncn5C)COC4)cc3C2=O)c1` (single isomer, unassigned) [Compound 217], for which the concentration for half-maximal inhibition (IC50) lay within 0.08 to 0.3 µM.
As for `Cc1nccn1Cc1cc(N2Cc3ccc(C4(Cc5nncn5C)COC4)cc3C2=O)nc(C(F)(F)F)c1` [Compound 54, 2-(4-((2-Methyl-1H-imidazol-1-yl)methyl)-6-(trifluoromethyl)pyridin-2-yl)-6-(3-((4-methyl-4H-1,2,4-triazol-3-yl)methyl)oxetan-3-yl)isoindolin-1-one], the concentration for half-maximal inhibition (IC50) fell in the range of 0.3 to 5 µM.
Regarding `Cn1cnnc1CC1(c2ccc3c(c2)C(=O)N(c2cc(CN4CC5(COC5)C4)cc(C(F)(F)F)n2)C3)COC1` [Compound 55, 2-(4-((2-Oxa-6-azaspiro[3.3]heptan-6-yl)methyl)-6-(trifluoromethyl)pyridin-2-yl)-6-(3-((4-methyl-4H-1,2,4-triazol-3-yl)methyl)oxetan-3-yl)isoindolin-1-one], the IC50 lay in the range of 0.3 to 5 µM.
As for `Cc1cc(CNCC(O)CN)cc(N2Cc3ccc(-c4ccc(F)cc4-c4nncn4C)cc3C2=O)n1` (centres unmarked) [Compound 318], the figure is 0.3 to 5 µM; as for `C[C@@H]1CN(Cc2cc(N3Cc4ccc(C5(Cc6nncn6C)COC5)cc4C3=O)nc(C(F)(F)F)c2)CCN1C` [Compound 97, (R)-2-(4-((3,4-Dimethylpiperazin-1-yl)methyl)-6-(trifluoromethyl)pyridin-2-yl)-6-(3-((4-methyl-4H-1,2,4-triazol-3-yl)methyl)oxetan-3-yl)isoindolin-1-one], 0.3 to 5 µM.
Take `Cn1cnnc1CC1(c2ccc3c(c2)C(=O)N(c2cc(C(=O)N4CC[C@H](O)C4)cc(C(F)(F)F)n2)C3)COC1` [Compound 36, (S)-2-(4-(3-Hydroxypyrrolidine-1-carbonyl)-6-(trifluoromethyl)pyridin-2-yl)-6-(3-((4-methyl-4H-1,2,4-triazol-3-yl)methyl)oxetan-3-yl)isoindolin-1-one]: the 50% inhibitory concentration (IC50) lay in the range of 0.3 to 5 µM.
In the case of `Cc1cc(CNCC2CC2)cc(N2Cc3ccc(-c4cc(F)c(F)cc4-c4nncn4C)cc3C2=O)n1` [Compound 267], the concentration for half-maximal inhibition (IC50) is 0.08 to 0.3 µM.
`Cn1cnnc1CC1(c2ccc3c(c2)C(=O)N(c2cc(CN4CCC(C(F)(F)F)CC4)cc(C(F)(F)F)n2)C3)COC1` [Compound 38, 6-(3-((4-Methyl-4H-1,2,4-triazol-3-yl)methyl)oxetan-3-yl)-2-(6-(trifluoro-methyl)-4-((4-(trifluoromethyl)piperidin-1-yl)methyl)pyridin-2-yl)isoindolin-1-one]: the half-inhibitory concentration (IC50) is 0.3 to 5 µM.
The same measure for `Cn1cnnc1CC1(c2ccc3c(c2)C(=O)N(c2cc(CN4CCC5OCCC54)cc(Cl)n2)C3)COC1` (centres unmarked) [Compound 192]: 0.3 to 5 µM; for `CN1CCN(Cc2cc(N3Cc4ccc(C5(Cc6nncn6C)COC5)cc4C3=O)nc(C(F)(F)F)c2)CC1=O` [Compound 63, 2-(4-((4-Methyl-3-oxopiperazin-1-yl)methyl)-6-(trifluoromethyl)pyridin-2-yl)-6-(3-((4-methyl-4H-1,2,4-triazol-3-yl)methyl)oxetan-3-yl)isoindolin-1-one]: 0.08 to 0.3 µM; for `Cc1cc(CNC(C)(C)CCO)cc(N2Cc3ccc(-c4ccc(Cl)cc4-c4nncn4C)cc3C2=O)n1` [Compound 276]: 0.08 to 0.3 µM.
On to `Cc1cc(C(C)c2cnn(C)c2)cc(N2Cc3ccc(-c4ccc(F)cc4-c4nncn4C)cc3C2=O)n1` (centres unmarked) [Compound 333, 6-(4-Fluoro-2-(4-methyl-4H-1,2,4-triazol-3-yl)phenyl)-2-(6-methyl-4-(1-(1-methyl-1H-pyrazol-4-yl)ethyl)pyridin-2-yl)isoindolin-1-one], for which the IC50 was 0.3 to 5 µM.
As for `C[C@@H]1CN(Cc2cc(Cl)nc(N3Cc4ccc(C5(Cc6nncn6C)COC5)cc4C3=O)c2)C[C@H](C)O1` [Compound 191], the figure is 0.3 to 5 µM; as for `Cc1cc(CNCC2CC2)cc(N2Cc3ccc(-c4ccc(Cl)cc4-c4nnc5ccccn45)cc3C2=O)n1` [Compound 268], 0.3 to 5 µM; as for `Cc1cc(CN[S+]([O-])C(C)(C)C)cc(N2Cc3ccc(-c4ccc(F)cc4-c4nncn4C)cc3C2=O)n1` (centres unmarked) [Compound 285], 0.3 to 5 µM.
In the case of `Cn1cnnc1CC1(c2ccc3c(c2)C(=O)N(c2cc(CNCc4ccccn4)cc(Cl)n2)C3)COC1` [Compound 203], the IC50 lay in the range of 0.08 to 0.3 µM.
As for `C[C@@H]1CN(Cc2cc(N3Cc4ccc(C5(Cc6nncn6C)COC5)cc4C3=O)nc(C(F)(F)F)c2)C[C@H](C)O1` [Compound 72, 2-(4-(((2R,6S)-2,6-Dimethylmorpholino)methyl)-6-(trifluoromethyl)pyridin-2-yl)-6-(3-((4-methyl-4H-1,2,4-triazol-3-yl)methyl)oxetan-3-yl)isoindolin-1-one], the figure is 0.3 to 5 µM; as for `Cc1ccc(CNCc2cc(Cl)nc(N3Cc4ccc(C5(Cc6nncn6C)COC5)cc4C3=O)c2)o1` [Compound 226], 0.08 to 0.3 µM; as for `Cc1cc(CNCC2CC2)cc(N2Cc3ncc(-c4ccc(Cl)cc4-c4nncn4C)cc3C2=O)n1` [Compound 264], 0.08 to 0.3 µM.
The same measure for `COc1cc(CNCC2CCC2)cc(N2Cc3ccc(C(C)Cc4nncn4C)cc3C2=O)n1` (centres unmarked) [Compound 254]: 0.08 to 0.3 µM; for `Cc1ccnc(CNCc2cc(Cl)nc(N3Cc4ccc(C5(Cc6nncn6C)COC5)cc4C3=O)c2)c1` [Compound 236]: 0.3 to 5 µM; for `C=C(c1cc(C)nc(N2Cc3ccc(-c4ccc(F)cc4-c4nncn4C)cc3C2=O)c1)c1cnn(C)c1` [Compound 332, 6-(4-Fluoro-2-(4-methyl-4H-1,2,4-triazol-3-yl)phenyl)-2-(6-methyl-4-(1-(1-methyl-1H-pyrazol-4-yl)vinyl)pyridin-2-yl)isoindolin-1-one]: 0.08 to 0.3 µM.
The same measure for `COC1(CNCc2cc(C)nc(N3Cc4ccc(-c5ccc(F)cc5-c5nncn5C)cc4C3=O)c2)CC1` [Compound 137, 6-(4-Fluoro-2-(4-methyl-4H-1,2,4-triazol-3-yl)phenyl)-2-(4-((((1-methoxycyclopropyl)methyl)amino)methyl)-6-methylpyridin-2-yl)isoindolin-1-one]: 0.08 to 0.3 µM.
Consider `C[C@@H]1CN(Cc2cc(Cl)nc(N3Cc4ccc(C5(Cc6nncn6C)COC5)cc4C3=O)c2)C[C@@H](C)O1` [Compound 177], for which the IC50 was in the range of 0.3 to 5 µM.
As for `CCC(NCc1cc(C)nc(N2Cc3ccc(-c4ccc(F)cc4-c4nncn4C)cc3C2=O)c1)C(=O)NC` (centres unmarked) [Compound 327], the IC50 lay in the range of 0.3 to 5 µM.
As for `Cc1cc(CO)cc(N2Cc3ccc(-c4ccc(F)cc4-c4nncn4C)cc3C2=O)n1` [Compound 136, 6-(4-Fluoro-2-(4-methyl-4H-1,2,4-triazol-3-yl)phenyl)-2-(4-(hydroxymethyl)-6-methylpyridin-2-yl)isoindolin-1-one], the figure is 0.3 to 5 µM; as for `Cc1cc(CNCC2CC2)cc(N2Cc3ccc(-c4ccc(C(F)(F)F)cc4-c4nncn4C)cc3C2=O)n1` [Compound 272], 0.08 to 0.3 µM; as for `Cn1cnnc1CC1(c2ccc3c(c2)C(=O)N(c2cc(CNCC4CCCCC4)cc(Cl)n2)C3)COC1` [Compound 153], 0.08 to 0.3 µM.
